Assay results published in PMC11596392, “Enhanced Antibacterial, Anti-Inflammatory, and Antibiofilm Activities of Tryptophan-Substituted Peptides Derived from Cecropin A-Melittin Hybrid Peptide BP100” (Molecules, 2024).
Where no end group is shown, it is not given here.

Tests used:
[1] = system: P. aeruginosa (KCTC 1637); format: cell-based, Pseudomonas aeruginosa; conditions: broth microdilution in MHB, 37 °C, 24 h, 100% inhibition of growth
Procedure: (§1) The antibacterial efficacy of the synthesized peptides was evaluated by determining the minimal inhibitory concentrations (MICs) against six standard bacterial strains and five drug-resistant bacterial strains using the Clinical and Laboratory Standards Institute (CLSI) microdilution method. Melittin served as the positive control.
(§2) The minimal inhibitory concentrations (MICs) of the peptides against bacterial strains were determined using a modified broth-microdilution method in accordance with the National Committee for Clinical Laboratory Standards (NCCLS) guidelines. Overnight cultures were diluted in cation-adjusted Mueller–Hinton Broth (MHB) to achieve an inoculum density of 2 × 10^6 CFU/mL. A two-fold serial dilution of the peptide solution (100 μL) was introduced into microtiter plates, followed by the addition of 100 μL of bacterial suspension. The plates were then incubated at 37 °C for 24 h to determine the MICs. Wells containing only culture media served as negative controls, while those with added bacteria functioned as positive controls. The MIC, expressed in μM, was defined as the lowest peptide concentration that prevented visible bacterial growth. This protocol was also employed to determine MICs in the presence of physiological salts (150 mM of NaCl, 4.5 mM of KCl, 6 μM of NH4Cl, 1 mM of MgCl2, 2.5 mM of CaCl2, and 4 μM of FeCl3) and 20% human serum to assess the peptides’ efficacy under conditions more closely resembling physiological environments. All experiments were conducted in triplicate and repeated three times independently to ensure reproducibility and statistical significance of the results.

MDRPA (CCARM 2109) = format: cell-based, multidrug-resistant Pseudomonas aeruginosa; conditions: broth microdilution in MHB, 37 °C, 24 h, 100% inhibition of growth
Procedure: as §1, §2

MDRPA (CCARM 2095) = format: cell-based, multidrug-resistant Pseudomonas aeruginosa; conditions: broth microdilution in MHB, 37 °C, 24 h, 100% inhibition of growth
Procedure: as §1, §2

[2] = system: preformed MDRPA (CCARM 2095) biofilms; format: cell-based, multidrug-resistant Pseudomonas aeruginosa; conditions: 24 h treatment; for MBEC50: 50% eradication; for MBEC90: 90% eradication
Procedure: While preventing biofilm formation on surfaces is crucial, treating established biofilm infections presents a significant challenge due to the extracellular polymeric substance (EPS) matrix hindering antibiotic penetration and the high cell density within mature biofilms. To address this challenge, we evaluated the ability of BP100 and its analogs to eradicate established MDRPA biofilms over a 24 h period. The minimum biofilm eradication concentration (MBEC90) was determined using crystal violet staining as the lowest concentration that reduced biomass by more than 90%. Among these peptides, BP5, BP6, BP7, BP8, BP9, BP11, and BP13 eradicated preformed MDRPA biofilms by more than 90% at a concentration of 8 μM (Figure 3c,d and Table 3).
The minimal biofilm eradication concentration (MBEC) for peptides against the multidrug-resistant Pseudomonas aeruginosa (MDRPA) (CCARM 2095) strain was assessed using the Calgary Biofilm Device (CBD), supplied by Innovotech, Edmonton, AB, Canada. A bacterial suspension with a density of (1 × 10^6) CFU/mL in (150 µL) of Luria–Bertani (LB) media was dispensed into each well of a 96-well microtiter plate, which was equipped with a peg lid (Innovotech, product code: 19111). This plate was incubated at 37 °C for 24 h with agitation at 110 rpm, promoting biofilm formation on the pegs. Subsequently, the peg lid was washed with phosphate-buffered saline (PBS, 0.01 M) and relocated to a fresh plate containing varying peptide concentrations (200 µL per well). The biofilms were then subjected to these peptides under the same incubation conditions. After another PBS rinse, the peg lid was moved to a recovery plate filled with (200 µL) of LB media per well. To detach the biofilms from the pegs, the recovery plate underwent sonication in a water bath for 10 to 15 min. Finally, the recovery plate was incubated at 37 °C for 24 h with agitation at 110 rpm, allowing any surviving bacteria to proliferate and cause turbidity. The MBEC is defined as the lowest concentration of peptides that inhibited turbidity formation in the recovery plate in comparison to sterility controls. This experiment was conducted in triplicate, and the median value from each trial was recorded.

E. coli (KCTC 1682) = format: cell-based, Escherichia coli; conditions: broth microdilution in MHB, 37 °C, 24 h, 100% inhibition of growth
Procedure: as §1, §2

[3] = system: S. typhimurium (KCTC 1926); format: cell-based, Salmonella typhimurium; conditions: broth microdilution in MHB, 37 °C, 24 h, 100% inhibition of growth
Procedure: as §1, §2

[4] = system: MDRPA (CCARM 2095) biofilm formation; format: cell-based, multidrug-resistant Pseudomonas aeruginosa; conditions: overnight 37 °C, crystal violet staining; for MBIC50: 50% inhibition; for MBIC90: 90% inhibition
Description: Bacterial biofilms, comprising communities of bacterial cells encased in a matrix of polysaccharides and nucleic acids, present a significant challenge for conventional antibiotics due to the protective nature of this matrix. Biofilms can enhance bacterial resistance to antibiotics by up to 1000-fold compared to planktonic bacteria. To address this issue, there is an urgent need to discover and develop novel alternative therapeutic agents capable of effectively combating biofilm-forming bacteria. […] Our research specifically focused on evaluating the impact of BP100 and its analogs on biofilm formation and eradication using multidrug-resistant Pseudomonas aeruginosa (MDRPA), a common pathogen responsible for biofilm-mediated nosocomial infections. The adhered biomass was quantified using crystal violet staining, and the minimum biofilm inhibitory concentration (MBIC90) was determined as the lowest concentration required to inhibit 90% of biofilm growth relative to the positive control. […] Human cathelicidin LL-37 is well-documented for its potent antibiofilm properties.
The inhibitory activity of the peptides on biofilm formation was evaluated against multidrug-resistant Pseudomonas aeruginosa (MDRPA) (CCARM 2095) using a biofilm inhibition assay to determine the minimal biofilm inhibitory concentration (MBIC). Peptide solutions were serially diluted in sterile water and aliquoted (100 μL) into a 96-well Costar polypropylene plate (Corning Inc., Corning, NY, USA). An equal volume of MDRPA suspension in Mueller–Hinton Broth (MHB), adjusted to 1 × 10^6 CFU/mL, was added to each well, resulting in a final inoculum density of 5 × 10^5 CFU/mL. Following overnight incubation at 37 °C, bacterial growth was quantified by measuring the optical density (OD) at 595 nm. Planktonic cells were then discarded, and the attached biofilms were washed thrice with distilled water. Residual biofilms were stained with 0.1% crystal violet for five minutes, washed to remove non-adherent dye, and subsequently destained using 95% ethanol. The OD at 595 nm was measured again to assess the biofilm mass. Control wells contained untreated bacteria. The MBIC was defined as the lowest peptide concentration that inhibited any residual crystal violet staining or biofilm formation. All assays were conducted in triplicate to ensure reproducibility. This method allows for the quantitative assessment of the peptides’ ability to prevent biofilm formation, a critical virulence factor in many bacterial infections, particularly those caused by multidrug-resistant strains.

MRSA (CCARM 3089) = format: cell-based, methicillin-resistant Staphylococcus aureus; conditions: broth microdilution in MHB, 37 °C, 24 h, 100% inhibition of growth
Procedure: as §1, §2

MRSA (CCARM 3090) = format: cell-based, methicillin-resistant Staphylococcus aureus; conditions: broth microdilution in MHB, 37 °C, 24 h, 100% inhibition of growth
Procedure: as §1, §2

| Molecule | Minimal Inhibitory Concentration (MIC) [1] [µM] | Minimal Inhibitory Concentration (MIC) (MDRPA (CCARM 2109)) [µM] | Minimal Inhibitory Concentration (MIC) (MDRPA (CCARM 2095)) [µM] | MBEC50 [2] [µM] | MBEC90 [2] [µM] | Minimal Inhibitory Concentration (MIC) (E. coli (KCTC 1682)) [µM] | Minimal Inhibitory Concentration (MIC) [3] [µM] | MBIC50 [4] [µM] | MBIC90 [4] [µM] | Minimal Inhibitory Concentration (MIC) (MRSA (CCARM 3089)) [µM] | Minimal Inhibitory Concentration (MIC) (MRSA (CCARM 3090)) [µM] |
| --- | --- | --- | --- | --- | --- | --- | --- | --- | --- | --- | --- |
| KKLFKKWWKWL-NH2 [BP16] | 8 | 32 | 32 | 16 | 32 | 16 | 16 | 8 to 16 | 16 | 16 | 128 |
| KKLFKKWLKYW-NH2 [BP10] | 8 | 16 | 16 | 8 to 16 | 16 | 8 | 8 | 16 to 32 | 32 | 64 | 64 |
| CC[C@H](C)[C@H](NC(=O)[C@H](CCCCN)NC(=O)[C@H](CCCCN)NC(=O)[C@H](Cc1c[nH]c2ccccc12)NC(=O)[C@H](CC(C)C)NC(=O)[C@H](CCCCN)NC(=O)[C@@H](N)CCCCN)C(=O)N[C@@H](CC(C)C)C(=O)N[C@@H](CCCCN)C(=O)N[C@@H](Cc1ccc(O)cc1)C(=O)N[C@@H](CC(C)C)C(N)=O [BP1] | 16 | 16 | 16 | 8 | 16 | 8 | 8 | 4 to 8 | 8 | 32 | 64 |
| KKLFKKWWKYL-NH2 [BP9] | 16 | 16 | 16 | 4 | 8 | 4 | 4 | 8 to 16 | 16 | 64 | 64 |
| KKWFKKWLKWL-NH2 [BP13] | 16 | 16 | 8 | 4 | 8 | 8 | 8 | 4 to 8 | 8 | 32 | 32 |
| KKWFKKILKWL-NH2 [BP6] | 16 | 16 | 8 | 4 | 8 | 4 | 4 | 4 to 8 | 8 | 8 | 16 |
| CC[C@H](C)[C@H](NC(=O)[C@H](CCCCN)NC(=O)[C@H](CCCCN)NC(=O)[C@H](Cc1ccccc1)NC(=O)[C@H](CC(C)C)NC(=O)[C@H](CCCCN)NC(=O)[C@@H](N)CCCCN)C(=O)N[C@@H](Cc1c[nH]c2ccccc12)C(=O)N[C@@H](CCCCN)C(=O)N[C@@H](Cc1ccc(O)cc1)C(=O)N[C@@H](CC(C)C)C(N)=O [BP3] | 32 | 16 | 16 | 16 | 32 | 8 | 4 | 8 to 16 | 16 | 64 | 64 |
